# ChEMBL document CHEMBL1201862, “PubChem BioAssay data set” (2004)
# Active and inactive are the calls of the source.
# System: not listed separately
# Experiment: Trypanosoma cruzi growth suppression in host cells – NIH3T3 host cells, beta-gal luminescence, confirmation (AID 2044);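 further: intracellular parasites grown in NIH/3T3 mouse fibroblasts as host cells; luminescent beta-galactosidase reporter signal from transgenic T. cruzi replicating inside host cells; inhibitors lower the luminescence signal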
# Type: functional, cell-based
# Details: not given
row,SMILES,EC50
1,Cc1nn(C)c(C(=O)Nc2ccc(S(=O)(=O)NC34CC5CC(CC(C5)C3)C4)cc2)c1Br,2.79 µM (active)

# System: H4
# Experiment: Luminescence Cell-Based Dose Response HTS to Identify Activators of 5'UTR Stem-Loop Driven Prion Protein mRNA Translation in H4 Neuroglioblastoma Cells. [Related pubchem assays: 1829 (Project Summary), 1814 (Primary HTS)]
# Type: functional
# Details: Homo sapiens
row,SMILES,EC50
1,COc1ccc(OCc2cc(C(=O)N(C)Cc3cc(C)no3)no2)c(Cl)c1,10.1 µM (active)
2,O=c1c2c(-c3ccccc3)ccnc2[nH]n1-c1ccccc1,> 120 µM (not active)
3,Cc1ccccc1C(=O)ON=C(N)c1cccc([N+](=O)[O-])c1,27.5 µM (active)
4,CC1CCC(NC(=O)Cn2c(=O)[nH]c3ccsc3c2=O)CC1 (stereo unspecified),90.1 µM (active)
5,C=CCn1c(SCC(N)=O)nnc1-c1cc2c(s1)CCC(CC)C2 (stereo unspecified),5.64 µM (active)
6,COc1cccc(Oc2nnnn2-c2ccccc2)c1,> 120 µM (not active)

# System: not listed separately
# Experiment: Luminescence Cell-Based Dose Response HTS to Identify Activators of Luciferase Translation or Activity in H4 […] Cells. [Related pubchem assays: 1829 (Project Summary), 1814 (Primary HTS)]
# Type: functional
# Details: not given
row,SMILES,EC50
1,COc1ccc(OCc2cc(C(=O)N(C)Cc3cc(C)no3)no2)c(Cl)c1,65.1 µM (active)
2,O=c1c2c(-c3ccccc3)ccnc2[nH]n1-c1ccccc1,10.8 µM (active)
3,Cc1ccccc1C(=O)ON=C(N)c1cccc([N+](=O)[O-])c1,17 µM (active)
4,CC1CCC(NC(=O)Cn2c(=O)[nH]c3ccsc3c2=O)CC1 (stereo unspecified),29.3 µM (active)
5,C=CCn1c(SCC(N)=O)nnc1-c1cc2c(s1)CCC(CC)C2 (stereo unspecified),27.7 µM (active)
6,COc1cccc(Oc2nnnn2-c2ccccc2)c1,54.7 µM (active)

# Target: T1, Heat shock factor protein 1 (Mus musculus, UniProt P38532)
# T1 sequence (P38532 whole entry): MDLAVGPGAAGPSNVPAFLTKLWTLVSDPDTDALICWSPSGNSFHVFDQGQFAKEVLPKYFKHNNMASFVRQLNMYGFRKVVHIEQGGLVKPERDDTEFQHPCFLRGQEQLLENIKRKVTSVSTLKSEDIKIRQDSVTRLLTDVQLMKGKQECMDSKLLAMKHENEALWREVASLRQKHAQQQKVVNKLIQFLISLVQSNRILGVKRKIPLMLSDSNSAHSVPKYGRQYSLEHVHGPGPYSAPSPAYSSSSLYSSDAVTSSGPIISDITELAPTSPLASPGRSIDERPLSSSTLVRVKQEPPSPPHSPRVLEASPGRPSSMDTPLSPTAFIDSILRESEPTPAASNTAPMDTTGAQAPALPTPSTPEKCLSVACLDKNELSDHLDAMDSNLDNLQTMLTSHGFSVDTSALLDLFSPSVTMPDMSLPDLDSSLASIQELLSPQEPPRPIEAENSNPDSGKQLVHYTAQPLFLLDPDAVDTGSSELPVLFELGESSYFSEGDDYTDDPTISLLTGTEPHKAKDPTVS
# Experiment: decrease of HSF1-responsive luciferase luminescence – cell-based, NIH3T3, dose retest, confirmation (AID 2382);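 further: NIH3T3 fibroblasts with HSF1-driven luciferase reporter stressed by proteasome inhibitor MG132; luminescence from HSF1-driven luciferase expression after 8 hours of MG132 stress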
# Type: functional
# Details: not given
row,SMILES,EC50
1,COc1cccc(-n2nnc3c(=O)n(Cc4ccccc4Cl)cnc32)c1,> 195 µM (not active)

# Target: Cytochrome P450 2D6 (Homo sapiens, UniProt P10635);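 further: CYP2D6 member of a cytochrome P450 panel assay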
# Details: not given
# Sequence of Cytochrome P450 2D6 (P10635 whole entry): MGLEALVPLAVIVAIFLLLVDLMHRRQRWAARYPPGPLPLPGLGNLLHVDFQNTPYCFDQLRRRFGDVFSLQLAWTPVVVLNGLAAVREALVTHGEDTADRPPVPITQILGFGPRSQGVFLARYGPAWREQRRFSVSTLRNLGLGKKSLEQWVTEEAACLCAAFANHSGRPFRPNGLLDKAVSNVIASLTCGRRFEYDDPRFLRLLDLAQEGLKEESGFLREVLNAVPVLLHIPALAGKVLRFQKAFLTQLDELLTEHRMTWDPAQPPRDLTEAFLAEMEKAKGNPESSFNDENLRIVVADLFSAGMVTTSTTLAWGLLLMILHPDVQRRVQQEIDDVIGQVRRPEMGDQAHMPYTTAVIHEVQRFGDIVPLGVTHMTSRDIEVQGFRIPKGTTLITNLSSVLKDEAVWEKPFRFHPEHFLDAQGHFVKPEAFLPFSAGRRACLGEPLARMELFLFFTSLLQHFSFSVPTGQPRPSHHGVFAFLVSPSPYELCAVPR
row,SMILES,AC50
1,O=c1cnc2cnc(N3CCNCC3)nc2n1CCc1ccccc1,15.8 µM (inconclusive)
2,CCOC(=O)Nc1ccc2c(c1)OCO2,35.5 µM (inconclusive)
3,CCOC(=O)C1CCN(c2c(NCc3ccc(C(=O)NCCC(C)C)cc3)c(=O)c2=O)CC1,0.398 µM (inconclusive)
4,COCCn1c(=O)c(-c2ccc(OC)cc2)nc2cnc(OC)nc21,25.1 µM (inconclusive)

# System: not listed separately
# Experiment: NIH3T3 cell viability loss – ATP luminescence, mouse fibroblasts, counter-screen, dose response (AID 2010);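 further: cells exposed to compound for about 90 hours before reading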
# Type: functional, cell-based
# Details: not given
row,SMILES,EC50
1,Cc1nn(C)c(C(=O)Nc2ccc(S(=O)(=O)NC34CC5CC(CC(C5)C3)C4)cc2)c1Br,> 60 µM (inconclusive)

# Target: Cytochrome P450 3A4 (Homo sapiens, UniProt P08684);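 further: CYP3A4 tested as one member of a cytochrome P450 panel screen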
# Details: not given
# Sequence of Cytochrome P450 3A4 (P08684 whole entry): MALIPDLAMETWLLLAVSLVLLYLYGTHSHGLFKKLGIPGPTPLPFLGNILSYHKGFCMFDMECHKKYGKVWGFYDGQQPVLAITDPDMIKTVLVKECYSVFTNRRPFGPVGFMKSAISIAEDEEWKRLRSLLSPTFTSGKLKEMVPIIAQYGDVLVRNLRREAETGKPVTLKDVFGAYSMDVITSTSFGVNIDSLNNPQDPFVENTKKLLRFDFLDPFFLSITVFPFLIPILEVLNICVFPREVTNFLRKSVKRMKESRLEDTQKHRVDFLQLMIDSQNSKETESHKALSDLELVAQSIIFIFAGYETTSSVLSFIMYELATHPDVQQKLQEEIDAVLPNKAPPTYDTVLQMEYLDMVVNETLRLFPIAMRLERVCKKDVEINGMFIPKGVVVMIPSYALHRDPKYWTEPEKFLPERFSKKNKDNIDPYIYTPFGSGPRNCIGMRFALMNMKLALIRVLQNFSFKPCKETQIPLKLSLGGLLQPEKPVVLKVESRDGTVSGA
row,SMILES,AC50
1,O=C(O)C[S+]([O-])c1ccc2c3c(cccc13)C(=O)c1ccccc1-2 (stereo unspecified),3.98 µM (inconclusive)
2,O=c1cnc2cnc(N3CCNCC3)nc2n1CCc1ccccc1,15.8 µM (inconclusive)
3,CCOC(=O)C1CCN(c2c(NCc3ccc(C(=O)NCCC(C)C)cc3)c(=O)c2=O)CC1,7.94 µM (inconclusive)

# System: Streptococcus
# Experiment: GAS UMAA2166 growth inhibition – luminescence, BacTiterGlo, counter-screen for streptokinase expression inhibitor project, dose response (AID 1915);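 further: potency for reduction of bacterial viability or growth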
# Type: functional, organism-based
# Details: not given
row,SMILES,EC50
1,COc1cccc(-n2nnc3c(=O)n(Cc4ccccc4Cl)cnc32)c1,> 150 µM (not active)
2,O=C(Cc1csc(NC(=O)Nc2cccc(Cl)c2)n1)NCc1cccnc1,13.7 µM (active)
3,O=C(CSc1nc(N2CCOCC2)nc(N2CCOCC2)n1)Nc1cccc(C(F)(F)F)c1,> 150 µM (not active)
4,CCC(C(=O)N1CCC(N2CCCCC2)CC1)n1nc(C)c2sc3ccccc3c2c1=O (stereo unspecified),> 150 µM (not active)
5,CC1(C)OC(C(O)(c2ccccc2)c2ccccc2)[C@@H](C(O)(c2ccccc2)c2ccccc2)O1 (stereo partly specified),> 150 µM (not active)
6,Cc1ccc2nc(Nc3nc(O)cc(-c4ccccc4)n3)nc(C)c2c1,6.98 µM (active)
7,Cc1nn(C)c(C(=O)Nc2ccc(S(=O)(=O)NC34CC5CC(CC(C5)C3)C4)cc2)c1Br,16.5 µM (active)
8,COc1cc(/C=N/Nc2ncnc3sc4c(c23)CCC4)ccc1O,> 150 µM (not active)
9,C=CCn1c(O)cc(=O)nc1SC(C)CC (stereo unspecified),> 150 µM (not active)

# System: not listed separately
# Experiment: Luminescence Cell-Based Dose Confirmation HTS to Identify Activators of 5'UTR Stem-Loop Driven Alpha-Synuclein mRNA Translation in H4 Neuroglioblastoma Cells. [Related pubchem assays: 1829 (Project Summary), 1814 (Primary HTS)]
# Type: functional
# Details: not given
row,SMILES,EC50
1,COc1ccc(OCc2cc(C(=O)N(C)Cc3cc(C)no3)no2)c(Cl)c1,1.42 µM (active)
2,O=c1c2c(-c3ccccc3)ccnc2[nH]n1-c1ccccc1,> 120 µM (not active)
3,Cc1ccccc1C(=O)ON=C(N)c1cccc([N+](=O)[O-])c1,13.8 µM (active)
4,CC1CCC(NC(=O)Cn2c(=O)[nH]c3ccsc3c2=O)CC1 (stereo unspecified),12.4 µM (active)
5,C=CCn1c(SCC(N)=O)nnc1-c1cc2c(s1)CCC(CC)C2 (stereo unspecified),3 µM (active)
6,COc1cccc(Oc2nnnn2-c2ccccc2)c1,0.44 µM (active)

# Target: T2, Streptokinase A (Streptococcus pyogenes serotype M1, UniProt P10520)
# T2 sequence (P10520 whole entry): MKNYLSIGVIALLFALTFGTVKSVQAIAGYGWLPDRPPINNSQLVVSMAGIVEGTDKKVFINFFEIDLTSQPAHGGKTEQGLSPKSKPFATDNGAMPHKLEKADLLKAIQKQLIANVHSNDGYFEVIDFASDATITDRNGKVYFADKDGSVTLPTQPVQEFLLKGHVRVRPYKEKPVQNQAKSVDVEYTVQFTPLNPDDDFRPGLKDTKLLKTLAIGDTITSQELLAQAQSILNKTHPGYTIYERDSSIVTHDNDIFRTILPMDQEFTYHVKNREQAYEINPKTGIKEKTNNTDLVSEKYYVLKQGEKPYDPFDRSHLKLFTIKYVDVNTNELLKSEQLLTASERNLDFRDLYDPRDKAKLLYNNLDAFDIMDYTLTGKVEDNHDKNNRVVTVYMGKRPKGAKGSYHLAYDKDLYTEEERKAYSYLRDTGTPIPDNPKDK
# Experiment: viability-normalized secreted streptokinase activity reduction – plasminogen activation absorbance, OD405, dose response (AID 1914);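 further: secreted streptokinase activity via plasminogen activation per viability signal from cell pellet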
# Type: functional, Streptococcus pyogenes M1 GAS
# Details: not given
row,SMILES,EC50
1,COc1cccc(-n2nnc3c(=O)n(Cc4ccccc4Cl)cnc32)c1,> 150 µM (not active)
2,O=C(Cc1csc(NC(=O)Nc2cccc(Cl)c2)n1)NCc1cccnc1,> 150 µM (not active)
3,O=C(CSc1nc(N2CCOCC2)nc(N2CCOCC2)n1)Nc1cccc(C(F)(F)F)c1,> 150 µM (not active)
4,CCC(C(=O)N1CCC(N2CCCCC2)CC1)n1nc(C)c2sc3ccccc3c2c1=O (stereo unspecified),> 150 µM (not active)
5,CC1(C)OC(C(O)(c2ccccc2)c2ccccc2)[C@@H](C(O)(c2ccccc2)c2ccccc2)O1 (stereo partly specified),2.78 µM (active)
6,Cc1ccc2nc(Nc3nc(=O)cc(-c4ccccc4)[nH]3)nc(C)c2c1,> 150 µM (not active)
7,Cc1nn(C)c(C(=O)Nc2ccc(S(=O)(=O)NC34CC5CC(CC(C5)C3)C4)cc2)c1Br,16.8 µM (active)
8,COc1cc(/C=N/Nc2ncnc3sc4c(c23)CCC4)ccc1O,5.06 µM (active)
9,C=CCn1c(O)cc(=O)nc1SC(C)CC (stereo unspecified),> 150 µM (not active)

# Target: Cytochrome P450 2C9 (Homo sapiens, UniProt P11712)
# Details: not given
# Sequence of Cytochrome P450 2C9 (P11712 whole entry): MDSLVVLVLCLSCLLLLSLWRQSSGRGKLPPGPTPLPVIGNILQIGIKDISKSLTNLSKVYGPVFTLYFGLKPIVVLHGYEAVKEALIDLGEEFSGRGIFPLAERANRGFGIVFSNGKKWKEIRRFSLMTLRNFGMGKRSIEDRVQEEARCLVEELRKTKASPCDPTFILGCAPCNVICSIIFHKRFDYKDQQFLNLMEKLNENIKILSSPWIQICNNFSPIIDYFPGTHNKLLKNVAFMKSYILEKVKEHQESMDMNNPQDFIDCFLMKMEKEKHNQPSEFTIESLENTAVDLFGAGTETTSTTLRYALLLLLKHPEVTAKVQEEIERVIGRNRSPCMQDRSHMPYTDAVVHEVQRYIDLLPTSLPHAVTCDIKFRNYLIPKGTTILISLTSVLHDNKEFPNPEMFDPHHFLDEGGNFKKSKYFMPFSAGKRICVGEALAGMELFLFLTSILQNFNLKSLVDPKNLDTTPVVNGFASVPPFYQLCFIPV
row,SMILES,AC50
1,O=C(O)C[S+]([O-])c1ccc2c3c(cccc13)C(=O)c1ccccc1-2 (stereo unspecified),6.31 µM (inconclusive)
2,O=c1cnc2cnc(N3CCNCC3)nc2n1CCc1ccccc1,20 µM (inconclusive)
3,CCOC(=O)Nc1ccc2c(c1)OCO2,39.8 µM (inconclusive)
4,CCOC(=O)C1CCN(c2c(NCc3ccc(C(=O)NCCC(C)C)cc3)c(=O)c2=O)CC1,7.94 µM (inconclusive)
5,COCCn1c(=O)c(-c2ccc(OC)cc2)nc2cnc(OC)nc21,39.8 µM (inconclusive)

# System: Streptococcus sp. 'group A'
# Experiment: Streptococcus pyogenes SK(-)GAS viability under kanamycin – luminescence, BacTiterGlo, confirmation, counter-screen for streptokinase expression inhibitor project, dose response (AID 1900)
# Type: functional, organism-based
# Details: not given
row,SMILES,EC50
1,COc1cccc(-n2nnc3c(=O)n(Cc4ccccc4Cl)cnc32)c1,> 150 µM (not active)
2,O=C(Cc1csc(NC(=O)Nc2cccc(Cl)c2)n1)NCc1cccnc1,3.19 µM (active)
3,O=C(CSc1nc(N2CCOCC2)nc(N2CCOCC2)n1)Nc1cccc(C(F)(F)F)c1,> 150 µM (not active)
4,CCC(C(=O)N1CCC(N2CCCCC2)CC1)n1nc(C)c2sc3ccccc3c2c1=O (stereo unspecified),> 150 µM (not active)
5,CC1(C)OC(C(O)(c2ccccc2)c2ccccc2)[C@@H](C(O)(c2ccccc2)c2ccccc2)O1 (stereo partly specified),2.95 µM (active)
6,Cc1ccc2nc(Nc3nc(O)cc(-c4ccccc4)n3)nc(C)c2c1,2.94 µM (active)
7,Cc1nn(C)c(C(=O)Nc2ccc(S(=O)(=O)NC34CC5CC(CC(C5)C3)C4)cc2)c1Br,8.5 µM (active)
8,COc1cc(/C=N/Nc2ncnc3sc4c(c23)CCC4)ccc1O,3.88 µM (active)
9,C=CCn1c(O)cc(=O)nc1SC(C)CC (stereo unspecified),21.3 µM (active)

# Target: Cytochrome P450 2C19 (Homo sapiens, UniProt P33261)
# Experiment: Cytochrome panel assay with activity outcomes. Panel member name: p450-cyp2c19 Compounds with AC50 equal or less than 10 uM are considered active
# Type: functional
# Details: read-out: AC50
# Sequence of Cytochrome P450 2C19 (P33261 whole entry): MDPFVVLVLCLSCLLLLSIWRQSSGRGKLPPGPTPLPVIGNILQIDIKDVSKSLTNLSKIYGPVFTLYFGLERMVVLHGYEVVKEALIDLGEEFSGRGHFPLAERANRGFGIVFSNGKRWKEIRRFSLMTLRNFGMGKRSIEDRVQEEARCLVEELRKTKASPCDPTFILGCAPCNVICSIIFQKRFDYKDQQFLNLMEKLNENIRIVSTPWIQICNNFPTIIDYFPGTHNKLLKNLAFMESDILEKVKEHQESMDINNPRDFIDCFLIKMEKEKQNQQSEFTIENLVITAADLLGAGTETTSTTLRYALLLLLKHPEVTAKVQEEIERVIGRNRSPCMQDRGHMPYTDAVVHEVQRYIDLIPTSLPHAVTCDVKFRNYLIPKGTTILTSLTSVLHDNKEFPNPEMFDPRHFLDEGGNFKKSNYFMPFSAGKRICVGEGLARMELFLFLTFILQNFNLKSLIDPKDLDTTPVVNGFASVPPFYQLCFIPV
row,SMILES,AC50
1,COCCn1c(=O)c(-c2ccc(OC)cc2)nc2cnc(OC)nc21,39.8 µM (inconclusive)
